Reference: patent US20250109127A1, “METHODS OF USE OF PHENOXYPROPYLAMINE COMPOUNDS TO TREAT DEPRESSION” (Minerva Neurosciences, Inc., priority 2013, published 2025)
Several values for one entry are separate records, joined by “and”; a condition that tells them apart may be missing. Equal values may be shown once.

Test system: HVA release in the rat prefrontal cortex
Assay: Microdialysis: HVA release in prefrontal cortex after I.P. administration
Type: in vivo
Settings: Citalopram 10 mg/kg I.P.
Experimental: The aim of the study was to evaluate, using microdialysis, the effects of an intraperitoneal (I.P.) administration in rats of three different doses of SON-117 on dopamine and its metabolites, serotonin and its metabolite (5-HIAA), and norepinephrine levels in prefrontal cortex.
Thirty-two adult male Wistar rats were used for the whole study (4 groups of eight animals planned for the study, Table 1).
Surgery was performed on rats weighing about 300 g at the beginning of the experiments. Rats were anaesthetized with Ketamine (50 mg/kg) & Xylazine (15 mg/kg) by intramuscular administration. The animals were placed in a stereotaxic apparatus in the flat-skull position at a constant setting of −3.3 mm between ear bars and the incisor bar. The animals were treated with a local anesthesic (xylocaine 1%, Astra Zeneca) and an analgesic (Temgesic, from Schering Plough, 0.05 mg/kg, s.c.). A rostrocaudal midline incision was made with a lancet to expose the dorsal skull surface. The “stereotaxic zero” was defined by the Bregma in accordance with Paxinos and Watson's atlas (1986). A hole was drilled in the skull with a drill and the meninges were pierced with a sterile needle to implant a CMA12 guide cannula which later received the dialysis probe.
Coordinates used for implanting guide cannula in prefrontal cortex from Bregma were anteroposterior 3.7 mm, mediolateral 0.8 mm, and dorsoventral −2 mm (top of the probe was at −5 mm). The guide cannula was fixed to the skull with two stainless steel screws (1.88 mm outside diameter) anchored. An application of dental cement was added. A plastic collar allowed each animal to be tethered to a Swivel assembly of the CMA 120 awake animal system. Following surgery, rats were kept in individual cages and allowed to recover for a minimum of 3-5 days before the experimentation. The rats were handled and put in plastic bowl for 10 min at least every day to habituate the animals to their new environment for the dialysis. An I.P. administration with saline was also performed every day.
Dialysis probes (CMA12/3 mm, membrane, 20 kD cut-off, Carnegie Medicine, Stockholm, Sweden), were carefully washed before inserting into the guide cannula. The wash was performed with the artificial cerebrospinal fluid (aCSF) medium (NaCl 147 mM, KCl 2.7 mM, CaCl2 1.2 mM, MgCl2 0.85 mM) at room temperature. The dialysis system was then equilibrated at 20° C. at a perfusion rate of 1 μl/min with a Carnegie pump (CMA100). All catheters (FEP tubing, internal volume of 1.2 μl/10 cm, and tubing adaptors) used for microdialysis were treated in the same conditions.
The probes duly prepared were inserted into the guide cannula and the CMA120 Swivel assembly secured to the animal using a plastic collar. Flow through the dialysis probe with aCSF was maintained at a rate of 1 μl/min during the whole experimentation. The first four fractions (corresponding to 2 hours) were discarded to avoid the effects of parenchymal disturbance and to ensure that an approximate steady-state level was reached. Fractions were then collected over a period of 8.5 h during which time the animals remained quiet. The dialysates were automatically collected with an autosampler (microfraction collector CMA 140, Carnegie Medicin) and stored at −80° C. until analysis. […] Perfusion was then maintained for 7 hours with aCSF. The dialysates (30 μl) were collected into 300 μl vials, transferred into dry ice and then kept frozen (−80° C.) until analysis. Frozen samples were shipped to a partner for analysis. At the end of the microdialysis study, a PBS with colored ink was perfused through the probe in order to visualize the dialyzed area.
Catecholamine assay: Concentrations of dopamine, DOPAC, HVA, 5-HIAA, 5-HT, and norepinephrin were determined for each sample by HPLC coupled with electrochemical detection.

## CN(C)CCCC1(c2ccc(F)cc2)OCc2cc(C#N)ccc21 (stereo not shown) [Citalopram, citalopram, reference compound]
T0-T30 min
  HVA in dialysate, MEAN: 102.65 % of respective basal
T30-T1 h
  HVA in dialysate, MEAN: 105.17 % of respective basal
  HVA in dialysate, individual animals: 110.26 % of respective basal and 73.39 % of respective basal and 105.80 % of respective basal and 135.08 % of respective basal and 125.22 % of respective basal and 95.29 % of respective basal and 76.23 % of respective basal and 120.12 % of respective basal
T1 h 30-T2 h
  HVA in dialysate, MEAN: 106.38 % of respective basal
  HVA in dialysate, individual animals: 104.10 % of respective basal and 113.65 % of respective basal and 118.49 % of respective basal and 112.13 % of respective basal and 90.95 % of respective basal and 85.54 % of respective basal and 119.96 % of respective basal
T1 h-T1 h 30
  HVA in dialysate, MEAN: 112.92 % of respective basal
  HVA in dialysate, individual animals: 120.80 % of respective basal and 108.77 % of respective basal and 119.99 % of respective basal and 133.87 % of respective basal and 130.19 % of respective basal and 94.21 % of respective basal and 78.63 % of respective basal and 116.88 % of respective basal
T2 h 30-T3 h
  HVA in dialysate, MEAN: 99.23 % of respective basal
  HVA in dialysate, individual animals: 86.24 % of respective basal and 96.34 % of respective basal and 105.81 % of respective basal and 109.56 % of respective basal and 114.62 % of respective basal and 86.75 % of respective basal and 85.57 % of respective basal and 108.98 % of respective basal
T2 h-T2 h 30
  HVA in dialysate, MEAN: 104.43 % of respective basal
  HVA in dialysate, individual animals: 119.22 % of respective basal and 102.87 % of respective basal and 120.09 % of respective basal and 114.29 % of respective basal and 113.51 % of respective basal and 80.94 % of respective basal and 78.69 % of respective basal
T3 h 30-T4 h
  HVA in dialysate, MEAN: 106.01 % of respective basal
  HVA in dialysate, individual animals: 116.4 % of respective basal and 101.70 % of respective basal and 115.15 % of respective basal and 111.71 % of respective basal and 116.15 % of respective basal and 91.42 % of respective basal and 83.19 % of respective basal and 112.34 % of respective basal
T3 h-T3 h 30
  HVA in dialysate, MEAN: 99.27 % of respective basal
  HVA in dialysate, individual animals: 120.94 % of respective basal and 53.98 % of respective basal and 122.37 % of respective basal and 100.07 % of respective basal and 116.40 % of respective basal and 87.92 % of respective basal and 83.63 % of respective basal and 108.86 % of respective basal
T4 h 30-T5 h
  HVA in dialysate, MEAN: 104.36 % of respective basal
  HVA in dialysate, individual animals: 122.34 % of respective basal and 105.68 % of respective basal and 105.06 % of respective basal and 88.58 % of respective basal and 115.04 % of respective basal and 93.59 % of respective basal and 99.55 % of respective basal and 105.03 % of respective basal
T4 h-T4 h 30
  HVA in dialysate, MEAN: 102.95 % of respective basal
  HVA in dialysate, individual animals: 114.29 % of respective basal and 100.59 % of respective basal and 112.89 % of respective basal and 101.71 % of respective basal and 116.86 % of respective basal and 75.84 % of respective basal and 89.63 % of respective basal and 111.78 % of respective basal
T5 h 30-T6 h
  HVA in dialysate, MEAN: 101.24 % of respective basal
  HVA in dialysate, individual animals: 117.67 % of respective basal and 97.79 % of respective basal and 98.75 % of respective basal and 98.06 % of respective basal and 103.48 % of respective basal and 81.28 % of respective basal
T5 h-T5 h 30
  HVA in dialysate, MEAN: 90.91 % of respective basal
  HVA in dialysate, individual animals: 56.25 % of respective basal and 103.6 % of respective basal and 88.87 % of respective basal and 96.67 % of respective basal and 94.02 % of respective basal and 92.05 % of respective basal and 104.93 % of respective basal
T6 h 30-T7 h
  HVA in dialysate, MEAN: 96.98 % of respective basal
  HVA in dialysate, individual animals: 91.33 % of respective basal and 101.80 % of respective basal and 95.80 % of respective basal and 96.50 % of respective basal and 91.69 % of respective basal and 93.72 % of respective basal and 98.54 % of respective basal
T6 h-T6 h 30
  HVA in dialysate, MEAN: 98.82 % of respective basal
  HVA in dialysate, individual animals: 123.42 % of respective basal and 100.15 % of respective basal and 101.33 % of respective basal and 91.37 % of respective basal and 91.61 % of respective basal and 99.80 % of respective basal and 86.50 % of respective basal and 96.35 % of respective basal
T-30 min-T0 (pre-dose)
  HVA in dialysate, MEAN: 100.15 % of respective basal
T-1 h 30-T-1 h (pre-dose)
  HVA in dialysate, MEAN: 103.32 % of respective basal
  HVA in dialysate, individual animals: 98.60 % of respective basal and 95.37 % of respective basal
T-1 h-T-30 min (pre-dose)
  HVA in dialysate, MEAN: 97.36 % of respective basal
